# Reference: patent publication US20250066389A1, “HETEROCYCLIC AMIDES AND METHODS OF USING THE SAME” (Rgenta Therapeutics, Inc., priority 2021, published 2025)
# Where a name gives a salt, the structure may show the parent alone.
# Tested on: PMS1
# Assay: Mini-Gene Reporter Assay—PMS1 (firefly luciferase mini-gene reporter transiently transfected into HEK293 cells)
# Assay type: cell-based
# Conditions: Homo sapiens; at 5 uM; mini-gene firefly luciferase reporter in HEK293 cells; read-out: PMS1 % Effect at 5 uM
# Procedure, shortened: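 HEK293 cells transiently transfected with a mini-gene construct (skipped exon with flanking introns/exons fused to firefly luciferase, pcDNA3.1) are incubated with compounds in duplicate. Exon inclusion raises luminescence; EC50 fitted by Levenberg-Marquardt; effect also scored at 5 μM.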
row,SMILES,activation at 5 µM
1,CCOc1cc2nn(C)cc2cc1C(=O)Nc1cnc(N2CCC3CCCNC3C2)cn1 (stereo not drawn) [Compound 303],50 to 75%
2,CCOc1cc2nn(C)cc2cc1C(=O)Nc1cnc(NCC2CC3CCC2N3)cn1 (stereo not drawn) [Compound 304],> 75%
3,CCOc1cc2nn(C)cc2cc1C(=O)Nc1cnc(N2CCNCC3(CC3)C2)cn1 [Compound 305],> 75%
4,CCOc1cc2nn(C)cc2cc1C(=O)Nc1cnc(N[C@@H]2CNC[C@@H](OC)C2)cn1 [Compound 306],< 50%
5,CCOc1cc2nn(C)cc2cc1C(=O)Nc1cnc(N[C@@H]2CNC[C@@H](F)C2)cn1 [Compound 307],50 to 75%
6,CCOc1cc2nn(C)cc2cc1C(=O)Nc1cnc(NC[C@H]2C[C@@](F)(CN)C2)cn1 [Compound 308],< 50%
7,CCOc1cc2nn(C)cc2cc1C(=O)Nc1cnc(N2CC(O)(C3CCCN3)C2)cn1 (stereo not drawn) [Compound 309],> 75%
8,CCOc1cc2nn(C)cc2cc1C(=O)Nc1cnc(NCCC2CC3CCC(C2)N3)cn1 (stereo not drawn) [Compound 310],< 50%
9,CCOc1cc2nn(C)cc2cc1C(=O)Nc1cnc(NC(C)CC2CC3CCC(C2)N3)cn1 (stereo not drawn) [Compound 311],< 50%
10,CCOc1cc2nn(C)cc2cc1C(=O)Nc1cnc(NC[C@H]2CNCC(C)(C)O2)cn1 [Compound 312],< 50%
11,CCOc1cc2nn(C)cc2cc1C(=O)Nc1cnc(NC2CNCC3(CCC3)C2)cn1 (stereo not drawn) [Compound 313],< 50%
12,CCOc1cc2nn(C)cc2cc1C(=O)Nc1cnc(N2C3CCCC2CNC3)cn1 [Compound 314],< 50%
13,CCOc1cc2nn(C)cc2cc1C(=O)Nc1cnc(NC2CCC(C)NC2)cn1 (stereo not drawn) [Compound 315],< 50%
14,CCOc1cc2nn(C)cc2cc1C(=O)Nc1cnc(N2CC(NC)C3(CC3)C2)cn1 (stereo not drawn) [Compound 316],50 to 75%
15,CCOc1cc2nn(C)cc2cc1C(=O)Nc1cnc(N2CCCC(NC)CC2)cn1 (stereo not drawn) [Compound 317],< 50%
16,CCOc1cc2nn(C)cc2cc1C(=O)Nc1cnc(NCC2CNC(C)C2)cn1 (stereo not drawn) [Compound 318],< 50%

# Same assay, conditions: Homo sapiens; mini-gene firefly luciferase reporter in HEK293 cells
row,SMILES,IC50
1,CCOc1cc2nc(C)cn2cc1C(=O)Nc1ccc(N2C3CCCC2CNC3)nn1 [Compound 238],1 to 10 µM
2,CCOc1cc2nc(C)cn2cc1C(=O)Nc1ccc(N2CCC3CCNCC3C2)nn1 (stereo not drawn) [Compound 240],1 to 10 µM
3,CCOc1cc2nc(C)cn2cc1C(=O)Nc1ccc(N2CC34CCCC3(CNC4)C2)nn1 (stereo not drawn) [Compound 242],1 to 10 µM
4,CCOc1cc2nc(C)cn2cc1C(=O)Nc1ccc(N2CCNC3CCCCC32)nn1 (stereo not drawn) [Compound 243],1 to 10 µM
5,CCNC1CCN(c2ccc(NC(=O)c3cn4cc(C)nc4cc3OCC)nn2)C1 (stereo not drawn) [Compound 244],< 1 µM
6,CCOc1cc2nc(C)cn2cc1C(=O)Nc1ccc(N2CCC(NCCOC)CC2)nn1 [Compound 245],1 to 10 µM
7,CCOc1cc2nc(C)cn2cc1C(=O)Nc1ccc(N2C3CCC2CC(NC)C3)nn1 (stereo not drawn) [Compound 247],1 to 10 µM
8,CCOc1cc2nc(C)cn2cc1C(=O)Nc1ccc(N2CC3CCCC(C2)NC3)nn1 (stereo not drawn) [Compound 248],1 to 10 µM
9,CCOc1cc2nc(C)cn2cc1C(=O)Nc1ccc(N2CCC(NCC3CC3)CC2)nn1 [Compound 249],1 to 10 µM
10,CCOc1cc2nc(C)cn2cc1C(=O)Nc1ccc(N(C)C2CCCNCC2)nn1 (stereo not drawn) [Compound 250],1 to 10 µM
11,CCNC1CCCN(c2ccc(NC(=O)c3cn4cc(C)nc4cc3OCC)nn2)C1 (stereo not drawn) [Compound 251],1 to 10 µM
12,CCOc1cc2nc(C)cn2cc1C(=O)Nc1ccc(N2CCCC3(CCNC3)C2)nn1 (stereo not drawn) [Compound 254],10 to 50 µM
13,CCOc1cc2nc(C)cn2cc1C(=O)Nc1ccc(N2CC3CCCC(C2)N3)nn1 [Compound 255],< 1 µM
14,CCOc1cc2nc(C)cn2cc1C(=O)Nc1ccc(N(C)[C@@H]2C[C@H]3CC[C@@H](C2)N3)nn1 [Compound 256],1 to 10 µM
15,CCOc1cc2nc(C)cn2cc1C(=O)Nc1ccc(N2CCNC(C)CC2)nn1 (stereo not drawn) [Compound 257],1 to 10 µM
16,CCOc1cc2nc(C)cn2cc1C(=O)Nc1ccc(N2CCNC3CC32)nn1 (stereo not drawn) [Compound 258],1 to 10 µM
17,CCOc1cc2nc(C)cn2cc1C(=O)Nc1ccc(N2CCN(CC3CCNCC3)CC2)nn1 [Compound 259],1 to 10 µM
18,CCOc1cc2nc(C)cn2cc1C(=O)Nc1ccc(N2C[C@@H]3CCCN[C@@H]3C2)nn1 [Compound 260],1 to 10 µM
19,CCNC1CN(c2ccc(NC(=O)c3cn4cc(C)nc4cc3OCC)nn2)C1 [Compound 262],1 to 10 µM
20,CCOc1cc2nc(C)cn2cc1C(=O)Nc1ccc(N2CCC(C3CCCN3)CC2)nn1 (stereo not drawn) [Compound 263],1 to 10 µM

row,SMILES,IC50
1,CCOc1cc2nc(C)cn2cc1C(=O)Nc1ccc(N2CCNCCC2C)nn1 (stereo not drawn) [Compound 264],1 to 10 µM
2,CCOc1cc2nc(C)cn2cc1C(=O)Nc1ccc(N2CCC3(CCCNC3)C2)nn1 (stereo not drawn) [Compound 265],1 to 10 µM
3,CCOc1cc2nc(C)cn2cc1C(=O)Nc1ccc(N2CCC(CNC)C2)nn1 (stereo not drawn) [Compound 266],< 1 µM
4,CCOc1cc2nc(C)cn2cc1C(=O)Nc1ccc(N2CC3(CCNC3)C2)nn1 [Compound 267],1 to 10 µM
5,CCOc1cc2nc(C)cn2cc1C(=O)Nc1ccc(N2CCNC(C)C2C)nn1 (stereo not drawn) [Compound 268],1 to 10 µM
6,CCNC1CCN(c2ccc(NC(=O)c3cn4cc(C)nc4cc3OCC)nn2)CC1 [Compound 269],1 to 10 µM
7,CCOc1cc2nc(C)cn2cc1C(=O)Nc1ccc(N2CCC(CNC)CC2)nn1 [Compound 270],1 to 10 µM
8,CCOc1cc2nc(C)cn2cc1C(=O)Nc1ccc(N2CCC3(CNC3)C2)nn1 [Compound 271],1 to 10 µM
9,CCOc1cc2nc(C)cn2cc1C(=O)Nc1ccc(N2CCN(C3CNC3)CC2)nn1 [Compound 272],1 to 10 µM
10,CCOc1cc2nc(C)cn2cc1C(=O)Nc1ccc(N2CCC3(CCNCC3)C2)nn1 [Compound 273],1 to 10 µM
11,CCOc1cc2nc(C)cn2cc1C(=O)Nc1ccc(N2CCN(C3CCNC3)CC2)nn1 (stereo not drawn) [Compound 274],1 to 10 µM
12,CCOc1cc2nc(C)cn2cc1C(=O)Nc1ccc(N2CCC3(CCNC3)CC2)nn1 [Compound 275],1 to 10 µM
13,CCOc1cc2nc(C)cn2cc1C(=O)Nc1ccc(N2CCN[C@@H](C(C)C)C2)nn1 [Compound 276],< 1 µM
14,CCOc1cc2nc(C)cn2cc1C(=O)Nc1ccc(N2CC3(CNC3)C2)nn1 [Compound 277],1 to 10 µM
15,CCOc1cc2nc(C)cn2cc1C(=O)Nc1ccc(N2CCCC(CNC)C2)nn1 (stereo not drawn) [Compound 278],1 to 10 µM
16,CCOc1cc2nc(C)cn2cc1C(=O)Nc1ccc(N2CCNC(CC)C2)nn1 (stereo not drawn) [Compound 279],< 1 µM
17,CCOc1cc2nc(C)cn2cc1C(=O)Nc1ccc(N2CCC(NC)C2)nn1 (stereo not drawn) [Compound 280],< 1 µM
18,CCOc1cc2nc(C)cn2cc1C(=O)Nc1ccc(N2CC(C)NCC2C)nn1 (stereo not drawn) [Compound 281],1 to 10 µM
19,CCOc1cc2nc(C)cn2cc1C(=O)Nc1ccc(N2C[C@@H](C)N[C@@H](C)C2)nn1 [Compound 282],< 1 µM
20,CCOc1cc2nc(C)cn2cc1C(=O)Nc1ccc(N2CCCC(NC)C2)nn1 (stereo not drawn) [Compound 283],1 to 10 µM

row,SMILES,IC50
1,CCOc1cc2nc(C)cn2cc1C(=O)Nc1ccc(N2CCC3(CCNCC3)CC2)nn1 [Compound 284],1 to 10 µM
2,CCOc1cc2nc(C)cn2cc1C(=O)Nc1ccc(N2C[C@@H]3C[C@H]2CN3)nn1 [Compound 285],1 to 10 µM
3,CCOc1cc2nc(C)cn2cc1C(=O)Nc1ccc(N2CCC3(CCNC3)C2)nn1 (stereo not drawn) [Compound 286],1 to 10 µM
4,CCOc1cc2nc(C)cn2cc1C(=O)Nc1ccc(N2CCC3(CC2)CNC3)nn1 [Compound 287],1 to 10 µM
5,CCOc1cc2nc(C)cn2cc1C(=O)Nc1ccc(N(C)C2CCNC2)nn1 (stereo not drawn) [Compound 288],1 to 10 µM
6,CCOc1cc2nc(C)cn2cc1C(=O)Nc1ccc(N2CC3(CCNCC3)C2)nn1 [Compound 289],1 to 10 µM
7,CCOc1cc2nc(C)cn2cc1C(=O)Nc1ccc(N2CCNCC2)nn1 [Compound 290],< 1 µM
8,CCOc1cc2nc(C)cn2cc1C(=O)Nc1ccc(N2CCNCC2C)nn1 (stereo not drawn) [Compound 291],1 to 10 µM
9,CCOc1cc2nc(C)cn2cc1C(=O)Nc1ccc(N(C)C2CCNCC2)nn1 [Compound 292],1 to 10 µM
10,CCOc1cc2nc(C)cn2cc1C(=O)Nc1ccc(N2CC(NC)C2)nn1 [Compound 293],1 to 10 µM
11,CCOc1cc2nc(C)cn2cc1C(=O)Nc1ccc(N2CCCNCC2)nn1 [Compound 294],< 1 µM
12,CCOc1cc2nc(C)cn2cc1C(=O)Nc1ccc(N2CCNC(C)C2)nn1 (stereo not drawn) [Compound 295],< 1 µM
13,CCOc1cc2nc(C)cn2cc1C(=O)Nc1ccc(N2CC3(CC(NC)CO3)C2)nn1 (stereo not drawn) [Compound 296],1 to 10 µM
14,CCNC1COC2(C1)CN(c1ccc(NC(=O)c3cn4cc(C)nc4cc3OCC)nn1)C2 (stereo not drawn) [Compound 297],1 to 10 µM
15,CCOc1cc2nc(C)cn2cc1C(=O)Nc1ccc(N2CC3(CC(NC(C)C)CO3)C2)nn1 (stereo not drawn) [Compound 298],1 to 10 µM
16,"CCOc1cc2nn(C)cc2cc1C(=O)Nc1ccc(N2CCN(C)[C@@H](C)C2)nn1 [Compound 299, (S)—N-(6-(3,4-dimethylpiperazin-1-yl)pyridazin-3-yl)-6-ethoxy-2-methyl-2H-indazole-5-carboxamide hydrochloride]",1 to 10 µM
17,"CCOc1cc2nn(C)cc2cc1C(=O)Nc1ccc(N2CCN(CC)[C@@H](C)C2)nn1 [Compound 300, (S)-6-ethoxy-N-(6-(4-ethyl-3-methylpiperazin-1-yl)pyridazin-3-yl)-2-methyl-2H-indazole-5-carboxamide hydrochloride]",1 to 10 µM
18,"CCOc1cc2nn(C)cc2cc1C(=O)Nc1ccc(N2CCN(C3CCOCC3)[C@@H](C)C2)nn1 [Compound 301, 6-ethoxy-2-methyl-N-{6-[(3S)-3-methyl-4-(oxan-4-yl)piperazin-1-yl]pyridazin-3-yl}-2H-indazole-5-carboxamide]",1 to 10 µM
19,"COc1cc2nc(C)cn2cc1C(=O)Nc1cc(C)c(N2CCN[C@@H](C)C2)nn1 [Compound 302, 7-methoxy-2-methyl-N-{5-methyl-6-[(3S)-3-methylpiperazin-1-yl]pyridazin-3-yl}imidazo[1,2-a]pyridine-6-carboxamide]",< 1 µM
